Laboratory results published in US20050085447A1, “Pyrido[3,4-d]pyrimidine derivatives as matrix metalloproteinase-13 inhibitors” (Warner-Lambert Company LLC, priority 2003, published 2005).

How the values were obtained:
[1] = molecular target: MMP-13 catalytic domain (Homo sapiens, UniProt P45452); experiment: Thiopeptolide substrate hydrolysis inhibition assay, MMP-13 catalytic domain; type: biochemical
Description: The methods described below for the inhibition of MMP-13 may also be adapted and used to determine the ability of the compounds of Formula I to inhibit other matrix metalloproteases such as MMP-1, MMP-2, MMP-3, MMP-7, MMP-8, MMP-9, MMP-12, MMP-14, MMP-17, and the like.
Thiopeptolide substrates show virtually no decomposition or hydrolysis at or below neutral pH in the absence of a matrix metalloproteinase enzyme. A typical thiopeptolide substrate commonly utilized for assays is Ac-Pro-Leu-Gly-thioester-Leu-Leu-Gly-OEt. A 100 μL assay mixture will contain 50 mM of N-2-hydroxyethylpiperazine-N′-2-ethanesulfonic acid buffer (“HEPES,” pH 7.0), 10 mM CaCl2, 100 μM thiopeptolide substrate, and 1 mM 5,5′-dithio-bis-(2-nitro-benzoic acid) (DTNB). […] Assays are carried out with and without matrix metalloproteinase inhibitor compounds, and the amount of hydrolysis is compared for a determination of inhibitory activity of the test compounds.

[2] = molecular target: T1, MMP-17 catalytic domain (Homo sapiens, UniProt Q9ULZ9); experiment: Thiopeptolide substrate hydrolysis inhibition assay, MMP-17 catalytic domain; type: biochemical; conditions: read-out: MMP-17 CD IC50
T1 construct: MMP-14 catalytic domain, and MMP-17 catalytic domain
T1 sequence (Q9ULZ9 126-295 limits assumed): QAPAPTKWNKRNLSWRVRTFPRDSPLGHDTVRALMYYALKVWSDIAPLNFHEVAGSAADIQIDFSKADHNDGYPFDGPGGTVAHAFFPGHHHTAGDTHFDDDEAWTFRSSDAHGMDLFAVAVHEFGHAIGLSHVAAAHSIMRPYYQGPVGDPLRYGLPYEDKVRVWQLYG
Description: (§1) The assay methods of Biological Examples 1-4 measure the amount by which a test compound reduces the hydrolysis of a thiopeptolide substrate catalyzed by a matrix metalloproteinase enzyme or catalytic domain thereof. It has been shown previously by Ye Qi-Zhuang, Hupe D., and Johnson L. (Current Medicinal Chemistry, 1996;3:407-418) that inhibitor activity against a catalytic domain of an MMP is predictive of the inhibitor activity against the respective full-length MMP enzyme. The methods described below for the inhibition of MMP-13 may also be adapted and used to determine the ability of the compounds of Formula I to inhibit other matrix metalloproteases such as MMP-1, MMP-2, MMP-3, MMP-7, MMP-8, MMP-9, MMP-12, MMP-14, MMP-17, and the like.
(§2) Thiopeptolide substrates show virtually no decomposition or hydrolysis at or below neutral pH in the absence of a matrix metalloproteinase enzyme. A typical thiopeptolide substrate commonly utilized for assays is Ac-Pro-Leu-Gly-thioester-Leu-Leu-Gly-OEt. A 100 μL assay mixture will contain 50 mM of N-2-hydroxyethylpiperazine-N′-2-ethanesulfonic acid buffer (“HEPES,” pH 7.0), 10 mM CaCl2, 100 μM thiopeptolide substrate, and 1 mM 5,5′-dithio-bis-(2-nitro-benzoic acid) (DTNB). […] The change in absorbance at 405 nm is monitored on a Thermo Max microplate reader (molecular Devices, Menlo Park, Calif.) at room temperature (22° C.). The calculation of the amount of hydrolysis of the thiopeptolide substrate is based on E412=13600 M^−1 cm^−1 for the DTNB-derived product 3-carboxy-4-nitrothiophenoxide. Assays are carried out with and without matrix metalloproteinase inhibitor compounds, and the amount of hydrolysis is compared for a determination of inhibitory activity of the test compounds.
(§3) Test compounds were evaluated at various concentrations in order to determine their respective IC50 values, the micromolar concentration of compound required to cause a 50% inhibition of catalytic activity of the respective enzyme.
(§4) Some representative compounds of Formula I have been evaluated for their ability to inhibit MMP-13, MMP-1FL, MMP-3CD, MMP-7FL, MMP-8FL, MMP-9FL, MMP-12CD, MMP-14CD, and/or MMP-17CD, wherein FL means full-length enzyme and CD means a catalytic domain of the full-length enzyme. Test compounds can be evaluated at various concentrations in order to determine their respective IC50 values, the micromolar concentration of compound required to cause a 50% inhibition of the hydrolytic activity of the respective enzyme.
(§5) Certain compounds of Formula I have also been assayed with MMP-1 full-length, MMP-3 catalytic domain, MMP-7 full-length, MMP-8 full-length, MMP-9 full-length, MMP-12 catalytic domain, MMP-14 catalytic domain, and MMP-17 catalytic domain. […] In Biological Table 2, the compound example numbers for the Compound Examples are indicated in the column labelled “Ex. No.”

[3] = molecular target: T2, MMP-14 catalytic domain (Homo sapiens, UniProt P50281); experiment: Thiopeptolide substrate hydrolysis inhibition assay, MMP-14 catalytic domain; type: biochemical; conditions: read-out: MMP-14CD IC50
T2 construct: MMP-14 catalytic domain, and MMP-17 catalytic domain
Description: as §1, §2, §3, §4, §5

[4] = molecular target: T3, MMP-3 catalytic domain (Homo sapiens, UniProt P08254); experiment: Thiopeptolide substrate hydrolysis inhibition assay, MMP-3 catalytic domain; type: biochemical; conditions: MES buffer pH 6.0, read-out: MMP-3CD IC50
T3 construct: MMP-1 full-length, MMP-3 catalytic domain, MMP-7 full-length
Description: as §1, §2, §3
It should be appreciated that the assay buffer used with MMP-3CD was 50 mM N-morpholinoethane sulfonate (“MES”) at pH 6.0 rather than the HEPES buffer at pH 7.0 described above.
as §4, §5

[5] = molecular target: T4, MMP-12 catalytic domain (Homo sapiens, UniProt P39900); experiment: Thiopeptolide substrate hydrolysis inhibition assay, MMP-12 catalytic domain; type: biochemical; conditions: read-out: MMP-12CD IC50
T4 construct: MMP-9 full-length, MMP-12 catalytic domain, MMP-14 catalytic domain
Description: as §1, §2, §3, §4, §5

[6] = Pharmacokinetics in Sprague-Dawley rats (single IV or oral dose); type: in vivo, rat; conditions: rat, blood, Sprague-Dawley rats, single 5 mg/kg intravenous dose
Description: For comparison purposes, a reference compound was separately characterized according to its pharmacokinetics properties except AUC in a similar manner. The reference compound (“Reference Compound 1”) was the compound of Example 188 of PCT International Patent Application Publication number WO 02/064572 A1, which is also described in PCT International Patent Application Publication number WO 02/064080 A2 in Table IVb on page 76, 5th species from the top. […] Reference Compound 1 is named 4-[6-(4-methoxy-benzylcarbamoyl)- 1 -methyl-2,4-dioxo- 1,4-dihydro-2H-pyrido[3,4-d]pyrimidin-3-ylmethyl]-benzoic acid, and has the structure drawn below: [drawing 98]

T4 sequence (P39900 106-263 limits assumed): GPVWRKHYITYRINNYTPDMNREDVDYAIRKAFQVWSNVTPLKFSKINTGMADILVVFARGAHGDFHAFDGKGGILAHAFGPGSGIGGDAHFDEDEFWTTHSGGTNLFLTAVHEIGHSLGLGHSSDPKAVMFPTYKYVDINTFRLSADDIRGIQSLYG
T3 sequence (P08254 100-272 limits assumed): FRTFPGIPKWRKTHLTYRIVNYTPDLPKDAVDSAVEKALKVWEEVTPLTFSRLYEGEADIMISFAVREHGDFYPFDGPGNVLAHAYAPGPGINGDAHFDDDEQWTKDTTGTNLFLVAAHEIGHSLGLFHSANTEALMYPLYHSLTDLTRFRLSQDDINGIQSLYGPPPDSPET

Compound | IC50 [1] [µM] | IC50 [2] [µM] | IC50 [3] [µM] | IC50 [4] [µM] | IC50 [5] [µM] | clearance ([6]; read-out: IV CL) [mL/min/kg] | half-life ([6]; read-out: IV T1/2 (converted)) [min]
CSc1ccc(CNC(=O)c2cc3c(=O)n(Cc4ccc(C(=O)O)cc4)cnc3cn2)cc1 [Compound Example 7, 4-[6-(4-methylsulfanyl-benzylcarbamoyl)-4-oxo-4H-pyrido[3,4-d]pyrimidin-3-ylmethyl]-benzoic acid] | 0.011 | > 100 | > 30 | > 10 | 14 | – | –
O=C(O)c1ccc(Cn2cnc3cnc(C(=O)NCc4ccc(F)cc4)cc3c2=O)cc1 [Compound Example 8, 4-[6-(4-fluoro-benzylcarbamoyl)-4-oxo-4H-pyrido[3,4-d]pyrimidin-3-ylmethyl]-benzoic acid] | 0.0043 | > 100 | > 100 | 33 | > 30 | – | –
O=C(O)c1ccc(Cn2cnc3cnc(C(=O)NCc4ccccc4)cc3c2=O)cc1 [Compound Example 9] | 0.02 | > 100 | > 100 | > 30 | > 30 | – | –
COc1ccc(CNC(=O)c2cc3c(=O)n(Cc4ccc(C(=O)O)cc4)c(=O)n(C)c3cn2)cc1 [Reference Compound 1, 4-[6-(4-methoxy-benzylcarbamoyl)-1-methyl-2,4-dioxo-1,4-dihydro-2H-pyrido[3,4-d]pyrimidin-3-ylmethyl]-benzoic acid, reference compound] | – | – | – | – | – | 48.9 | 36
